The record followed here is ChEMBL document CHEMBL1909046, “DrugMatrix in vitro pharmacology data”.

Data set [1] is described as follows: DRUGMATRIX: Calcium Channel Type L, Dihydropyridine radioligand binding (ligand: [3H] Nitrendipine). It is filed as cell membranes, Rattus norvegicus, Wistar, Cerebral cortex, Membrane. The following applies: Not Active = under 50% inhibition at 10 µM.
Another data set concerns the target T1, Thromboxane-A synthase (Homo sapiens, UniProt P24557).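 Further: enzyme inhibition assay with PGH2 supplied as substrate; in other assays of this panel Not Active means under 50% inhibition at 10 µM.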
T1 sequence (P24557 whole entry): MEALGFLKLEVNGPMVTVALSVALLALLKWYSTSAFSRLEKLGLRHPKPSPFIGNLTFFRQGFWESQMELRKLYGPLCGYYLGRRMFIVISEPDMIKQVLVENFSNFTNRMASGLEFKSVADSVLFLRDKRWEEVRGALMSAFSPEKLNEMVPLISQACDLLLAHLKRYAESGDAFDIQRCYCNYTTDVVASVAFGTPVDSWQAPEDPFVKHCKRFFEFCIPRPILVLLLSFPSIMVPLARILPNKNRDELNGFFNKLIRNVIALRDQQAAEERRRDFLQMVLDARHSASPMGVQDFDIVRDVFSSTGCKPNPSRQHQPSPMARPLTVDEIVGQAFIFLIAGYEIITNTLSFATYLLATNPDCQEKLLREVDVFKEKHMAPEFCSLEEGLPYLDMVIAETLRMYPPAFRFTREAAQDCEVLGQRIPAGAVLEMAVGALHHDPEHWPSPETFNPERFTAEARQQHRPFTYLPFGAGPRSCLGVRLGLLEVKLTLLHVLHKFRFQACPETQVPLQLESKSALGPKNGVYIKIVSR
Nature of the data set: biochemical. It is filed as tissue-based, Platelet.

In a further data set the target is Cannabinoid receptor 1 (Homo sapiens, UniProt P21554). It is filed as cell membranes, Chem-1, Membrane. The following applies: chem-1. Further: in other assays of this panel Not Active means under 50% inhibition at 10 µM.
Data set [2] deals with T2, C-X-C chemokine receptor type 1 (Homo sapiens, UniProt P25024).
T2 sequence (P25024 whole entry): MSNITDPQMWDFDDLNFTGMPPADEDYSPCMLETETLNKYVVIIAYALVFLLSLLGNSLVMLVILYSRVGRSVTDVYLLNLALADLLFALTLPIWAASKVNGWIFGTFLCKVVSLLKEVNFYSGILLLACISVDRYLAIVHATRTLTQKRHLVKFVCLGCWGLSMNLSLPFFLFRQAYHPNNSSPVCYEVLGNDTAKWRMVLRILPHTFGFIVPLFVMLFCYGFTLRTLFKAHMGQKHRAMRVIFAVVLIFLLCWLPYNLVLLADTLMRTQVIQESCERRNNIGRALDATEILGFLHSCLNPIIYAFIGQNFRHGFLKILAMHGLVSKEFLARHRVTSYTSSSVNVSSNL

Data set [3] is described as follows: DRUGMATRIX: Interleukin IL-1 radioligand binding (ligand: [125I] interleukin 1beta). The class given is cell membranes, Membrane. To be noted: nih3t3; Not Active = under 50% inhibition at 10 µM.
Data set [4] in a line: DRUGMATRIX: Phorbol Ester radioligand binding (ligand: [3H] PDBu). It is filed as cell membranes, Mus musculus, ICR, Brain, Membrane. The following applies: Not Active = under 50% inhibition at 10 µM.
The target of the next data set is T3, Caspase-1 (Homo sapiens, UniProt P29466).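 Further: Caspase-1 enzyme inhibition assay with a peptide substrate; in other assays of this panel Not Active means under 50% inhibition at 10 µM.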
T3 sequence (P29466 whole entry): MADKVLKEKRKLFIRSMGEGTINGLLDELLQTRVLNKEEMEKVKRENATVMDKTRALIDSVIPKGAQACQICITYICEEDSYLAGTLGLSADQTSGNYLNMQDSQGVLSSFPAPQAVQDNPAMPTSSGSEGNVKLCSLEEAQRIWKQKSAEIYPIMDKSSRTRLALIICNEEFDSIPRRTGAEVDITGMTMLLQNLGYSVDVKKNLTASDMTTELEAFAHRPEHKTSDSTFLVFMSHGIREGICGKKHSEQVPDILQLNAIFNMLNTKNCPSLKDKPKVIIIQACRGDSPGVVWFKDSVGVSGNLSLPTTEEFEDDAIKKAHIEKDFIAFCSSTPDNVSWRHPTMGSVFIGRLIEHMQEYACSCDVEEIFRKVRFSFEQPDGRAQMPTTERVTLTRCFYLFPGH
Set-up: species or system Escherichia coli.

Data set [5] addresses Epidermal growth factor receptor (Homo sapiens, UniProt P00533). Description: DRUGMATRIX: Protein Tyrosine Kinase, EGF Receptor enzyme inhibition (substrate: Poly(Glu:Tyr)). It is filed as cell-based, Insect cells. To be noted: Not Active = under 50% inhibition at 10 µM.
In the next data set the target is Cytochrome P450 2D6 (Homo sapiens, UniProt P10635). To be noted: bti-tn-5b1-4. Further: in other assays of this panel Not Active means under 50% inhibition at 10 µM.
The target of the next data set is Estrogen receptor beta (Homo sapiens, UniProt Q92731). The following applies: sf9. Further: in other assays of this panel Not Active means under 50% inhibition at 10 µM.

Molecules are shown by their SMILES.

Sequence of Epidermal growth factor receptor (P00533 whole entry): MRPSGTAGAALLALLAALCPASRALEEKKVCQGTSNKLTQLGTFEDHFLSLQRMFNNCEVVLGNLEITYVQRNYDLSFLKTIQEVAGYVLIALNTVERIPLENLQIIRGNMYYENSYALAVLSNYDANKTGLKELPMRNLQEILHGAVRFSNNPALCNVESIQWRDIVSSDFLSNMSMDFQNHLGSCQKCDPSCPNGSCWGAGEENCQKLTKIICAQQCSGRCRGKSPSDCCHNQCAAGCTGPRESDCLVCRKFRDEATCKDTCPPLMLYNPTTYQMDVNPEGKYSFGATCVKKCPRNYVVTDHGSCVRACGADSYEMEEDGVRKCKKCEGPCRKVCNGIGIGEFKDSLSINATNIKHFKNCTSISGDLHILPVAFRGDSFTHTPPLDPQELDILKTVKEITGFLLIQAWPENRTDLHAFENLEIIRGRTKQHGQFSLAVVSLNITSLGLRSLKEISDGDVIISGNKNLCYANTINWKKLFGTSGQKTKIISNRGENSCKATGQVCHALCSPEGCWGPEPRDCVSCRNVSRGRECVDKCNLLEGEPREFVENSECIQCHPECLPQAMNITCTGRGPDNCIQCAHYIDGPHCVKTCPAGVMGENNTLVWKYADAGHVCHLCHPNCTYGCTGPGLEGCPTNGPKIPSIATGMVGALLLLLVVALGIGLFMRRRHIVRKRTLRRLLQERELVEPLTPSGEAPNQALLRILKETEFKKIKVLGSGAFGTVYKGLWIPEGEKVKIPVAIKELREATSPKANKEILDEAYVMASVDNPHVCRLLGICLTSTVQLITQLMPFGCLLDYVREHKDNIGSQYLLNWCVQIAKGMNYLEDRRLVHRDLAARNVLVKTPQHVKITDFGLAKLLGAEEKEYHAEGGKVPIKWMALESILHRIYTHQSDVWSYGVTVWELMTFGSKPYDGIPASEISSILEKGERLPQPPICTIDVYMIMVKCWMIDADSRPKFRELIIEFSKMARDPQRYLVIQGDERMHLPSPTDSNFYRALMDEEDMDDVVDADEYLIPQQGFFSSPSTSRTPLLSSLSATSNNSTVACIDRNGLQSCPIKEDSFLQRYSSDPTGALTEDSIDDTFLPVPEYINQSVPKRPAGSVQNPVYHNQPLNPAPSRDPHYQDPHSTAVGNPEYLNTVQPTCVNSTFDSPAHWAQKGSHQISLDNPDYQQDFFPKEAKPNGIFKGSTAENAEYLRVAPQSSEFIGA
Sequence of Estrogen receptor beta (Q92731 whole entry): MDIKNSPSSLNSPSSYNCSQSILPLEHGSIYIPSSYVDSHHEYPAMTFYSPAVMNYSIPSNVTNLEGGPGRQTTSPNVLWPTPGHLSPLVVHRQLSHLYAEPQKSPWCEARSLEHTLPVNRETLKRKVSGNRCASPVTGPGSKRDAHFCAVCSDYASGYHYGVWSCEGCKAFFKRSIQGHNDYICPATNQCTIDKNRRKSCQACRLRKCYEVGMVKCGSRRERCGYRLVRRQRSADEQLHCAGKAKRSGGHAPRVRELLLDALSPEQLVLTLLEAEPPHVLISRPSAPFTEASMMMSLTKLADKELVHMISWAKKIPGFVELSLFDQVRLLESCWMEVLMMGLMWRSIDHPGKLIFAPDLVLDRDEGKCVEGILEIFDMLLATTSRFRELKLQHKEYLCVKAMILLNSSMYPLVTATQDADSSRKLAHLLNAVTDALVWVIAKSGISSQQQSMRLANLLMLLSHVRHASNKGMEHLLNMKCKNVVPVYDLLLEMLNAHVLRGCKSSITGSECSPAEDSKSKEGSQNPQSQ
Sequence of Cannabinoid receptor 1 (P21554 whole entry): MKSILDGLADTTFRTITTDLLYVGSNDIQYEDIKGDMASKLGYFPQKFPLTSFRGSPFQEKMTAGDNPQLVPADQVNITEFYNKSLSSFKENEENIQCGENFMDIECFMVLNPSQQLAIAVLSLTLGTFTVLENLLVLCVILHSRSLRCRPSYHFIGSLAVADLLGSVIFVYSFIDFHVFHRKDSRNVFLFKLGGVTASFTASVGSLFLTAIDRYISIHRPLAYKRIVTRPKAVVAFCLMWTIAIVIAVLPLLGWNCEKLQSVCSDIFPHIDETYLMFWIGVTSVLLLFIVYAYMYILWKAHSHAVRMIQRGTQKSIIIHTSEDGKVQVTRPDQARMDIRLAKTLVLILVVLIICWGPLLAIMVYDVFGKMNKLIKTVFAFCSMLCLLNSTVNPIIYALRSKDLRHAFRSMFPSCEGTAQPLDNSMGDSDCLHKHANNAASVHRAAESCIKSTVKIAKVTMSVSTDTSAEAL
Sequence of Cytochrome P450 2D6 (P10635 whole entry): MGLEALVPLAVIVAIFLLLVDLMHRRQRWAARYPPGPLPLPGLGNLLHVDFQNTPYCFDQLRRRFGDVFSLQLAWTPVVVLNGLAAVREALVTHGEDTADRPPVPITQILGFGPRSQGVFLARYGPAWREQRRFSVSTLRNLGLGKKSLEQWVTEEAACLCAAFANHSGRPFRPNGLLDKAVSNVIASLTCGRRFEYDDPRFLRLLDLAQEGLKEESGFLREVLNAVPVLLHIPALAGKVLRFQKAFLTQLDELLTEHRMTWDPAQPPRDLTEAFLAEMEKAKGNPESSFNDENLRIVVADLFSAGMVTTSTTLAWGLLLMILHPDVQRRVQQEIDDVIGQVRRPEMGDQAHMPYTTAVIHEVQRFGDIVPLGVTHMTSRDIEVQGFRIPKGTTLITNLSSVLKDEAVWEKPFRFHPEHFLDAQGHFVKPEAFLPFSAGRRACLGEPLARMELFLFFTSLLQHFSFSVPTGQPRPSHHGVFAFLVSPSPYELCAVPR

As to `CC(C)(C)c1ccc(C(O)CCCN2CCC(C(O)(c3ccccc3)c3ccccc3)CC2)cc1` (centres undefined) [TERFENADINE], the IC50 in data set [1] (read-out: IC50) was 779 nM; against Thromboxane-A synthase (platelet) it was “Not Active”; at Cannabinoid receptor 1, “Not Active”; in data set [2] it was “Not Active”; in [3] it was “Not Active”; in [4] it was “Not Active”. Moreover, the IC50 result on Caspase-1 is “Not Active”; in data set [5] (read-out: IC50) it was 3570 nM; on Cytochrome P450 2D6, “Not Active”; against Estrogen receptor beta, “Not Active”. Also, the Ki in data set [1] (read-out: Ki) was 501 nM; in data set [3], “Not Active”; in data set [4] it was “Not Active”; on Cytochrome P450 2D6 it was “Not Active”.

On to `O=C1CCC(N2C(=O)c3ccccc3C2=O)C(=O)N1` (centres undefined) [THALIDOMIDE], for which the IC50 result (in data set [1]; at Thromboxane-A synthase (platelet); at Cannabinoid receptor 1; in [2]; in [3]; in data set [4]) was “Not Active” each time. Moreover, the IC50 entry (against Caspase-1; in data set [5] (insect cells); at Cytochrome P450 2D6; at Estrogen receptor beta) was “Not Active” each time. In addition, the Ki entry (in data set [1]; in data set [3]; in data set [4]; on Cytochrome P450 2D6) was “Not Active” each time.

For the compound `Cc1cccc(Nc2ccncc2S(=O)(=O)NC(=O)NC(C)C)c1` [TORSEMIDE], the IC50 result (in data set [1]; at Thromboxane-A synthase (platelet); against Cannabinoid receptor 1; in data set [2]; in data set [3]; in [4]) was “Not Active” throughout. For the same compound, the IC50 entry (against Caspase-1; in data set [5] (insect cells); against Cytochrome P450 2D6; at Estrogen receptor beta) was “Not Active” each time. In addition, the Ki result (in data set [1]; in data set [3]; in data set [4]; on Cytochrome P450 2D6) was “Not Active” each time.

Turning to `CC(C)C[C@H](NC(=O)[C@@H](O)[C@H](N)Cc1ccccc1)C(=O)O` [UBENIMEX], the IC50 entry (in data set [1]; on Thromboxane-A synthase (platelet); at Cannabinoid receptor 1; in data set [2]; in data set [3]; in data set [4]) was “Not Active” in each case. The IC50 entry (on Caspase-1; in data set [5] (insect cells); against Cytochrome P450 2D6; against Estrogen receptor beta) was “Not Active” in each case. Further, the Ki entry (in [1]; in [3]; in [4]; at Cytochrome P450 2D6) was “Not Active” in each case.

Consider `Cc1onc(-c2ccccc2)c1-c1ccc(S(N)(=O)=O)cc1` [VALDECOXIB], for which the IC50 entry (in data set [1]; on Thromboxane-A synthase (platelet); against Cannabinoid receptor 1; in data set [2]; in data set [3]; in data set [4]) was “Not Active” throughout. Moreover, the IC50 result (at Caspase-1; in data set [5] (insect cells); at Cytochrome P450 2D6; on Estrogen receptor beta) was “Not Active” in each case. The Ki result (in [1]; in data set [3]; in [4]; at Cytochrome P450 2D6) was “Not Active” in each case.

For the compound `CC[C@]1(O)C[C@@H]2CN(CCc3c([nH]c4ccccc34)[C@@](C(=O)OC)(c3cc4c(cc3OC)N(C)[C@H]3[C@@](O)(C(=O)OC)[C@H](OC(C)=O)[C@]5(CC)C=CCN6CC[C@]43[C@@H]65)C2)C1` [VINBLASTINE], the IC50 entry in [1] was “Not Active”; at Thromboxane-A synthase (read-out: IC50), 1870 nM; at Cannabinoid receptor 1, “Not Active”; in data set [2], “Not Active”; in data set [3], “Not Active”; in data set [4], “Not Active”. Further, the IC50 result (against Caspase-1; in data set [5] (insect cells); on Cytochrome P450 2D6; at Estrogen receptor beta) was “Not Active” in each case. For the same compound, the Ki result (in [1]; in data set [3]; in data set [4]; at Cytochrome P450 2D6) was “Not Active” each time.
